System: E. coli LF82 strain (adhesion to the brush border of the enterocytes via the type 1 pili)
Assay: Assay of inhibition by D-mannose of adhesion of E. coli LF82 to isolated enterocytes
Type: cell-based, Escherichia coli
Settings: for Adhesion index with 2% D-mannose: 2% (w/v) D-mannose, mean number of bacteria adhering to the brush border of an enterocyte; for Adhesion index (% relative) with 2% D-mannose: compared with absence of D-mannose = 100%
Protocol: The adhesion trials were performed as described in Darfeuille-Michaud et al., (1990); S. Knutton et al., (1985) and B. Lafeuille et al., (1981). The frozen intestinal samples were washed 3 times in PBS and the ileal mucosa was scraped with a cover glass in order to detach the enterocytes in PBS buffer supplemented with 0.25 M EDTA. About 10^5 isolated enterocytes were mixed with 10^8 E. coli cells in MEM medium containing 10% fetal calf serum (FCS, Seromed). After incubating for 2 hours at 37° C. and with gentle stirring, the enterocytes were washed 3 times in PBS (pH 7.2). The adhesion of the bacteria was quantified by examining under a phase contrast microscope at magnification×1000. The counting was performed according to a double blind design in order to determine the number of E. coli adhering to the brush border of 30 to 50 enterocytes. The adhesion index is expressed as number of bacteria attached to the brush border of one enterocyte.
The inhibitory power of D-mannose on the adhesion of the E. coli LF82 strain to the brush border of the enterocytes via the type 1 pili was tested. Adhesion trials were performed in the presence of 2% (w/v) D-mannose (Sigma) in MEM containing 10% FCS, the procedure being carried out as described above on enterocytes obtained from 3 CD patients (A, B and C) The results are presented in Table 3.

For `O=C[C@@H](O)[C@@H](O)[C@H](O)[C@H](O)CO` [D-mannose], the “Adhesion index with 2% D-mannose” value (enterocytes of CD patient A) was 0.028, the “Adhesion index (% relative) with 2% D-mannose” value (enterocytes of CD patient A) was 2.7% and the “Adhesion index with 2% D-mannose” value (enterocytes of CD patient B) was 0.032. For the same compound, the “Adhesion index (% relative) with 2% D-mannose” value (enterocytes of CD patient B) was 2.1%, the “Adhesion index with 2% D-mannose” value (enterocytes of CD patient C) was 0.025 and the “Adhesion index (% relative) with 2% D-mannose” value (enterocytes of CD patient C) was 1.4%. For the same compound, the “Effect on index of adhesion of the LF82 strain to the brush border of the enterocytes” value (enterocytes of patients suffering from Crohn's disease, 2% D-mannose) was “significant reduction”.

Reference: patent US9176131B2, “Method for diagnosing and treating Crohn's disease” (priority 2004, dated 2015)
